Results as given in patent publication US10428124B2, “Timothy grass allergens and methods and uses for immune response modulation” (LA JOLLA INSTITUTE FOR ALLERGY AND IMMUNOLOGY, priority 2012, dated 2019).

Key:
human IgE = test: 2D gel immunoblot of TG extract with serum pool from 8 TG-allergic donors, IgE reactivity; format: binding; conditions: for Antibody reactivity IgE/IgG: IgE: reactivity of the parent antigen (TG protein) from which the peptide is predicted, E+/E−; for Antibody reactvity IgE/IgG: IgE: E− = not IgE reactive
Experimental: (§1) 2D DIGE (Difference Gel Electrophoresis) analysis. The complete 2D DIGE analysis was performed by Applied Biomics (Hayward, Calif., US). Briefly, TG extract was run on two 2D gels (3-10 pH range, 12% SDS-acrylamide gel), one was Coomassie blue stained, the other was blotted onto a nitrocellulose membrane. The membrane was then incubated with 5% dried milk in PBS/0.05% Tween to block non-specific binding and subsequently probed with a serum pool from 8 TG-allergic individuals at a dilution of 1:250. IgE and IgG binding was detected using goat anti-human IgE and rabbit anti-human IgG (Sigma-Aldrich, St. Louis, Mo.) and visualized using Cy2-conjugated donkey anti-goat IgG and Cy5-conjugated donkey […] IgG antibodies (Biotium, Hayward, Calif.).
(§2) Mass spectral protein identification was performed by Applied Biomics (Hayward, Calif., US). Briefly, spots of interest were selected from the 2D blot and the corresponding spots were identified on the stained SDS gel and cut out, washed several times to remove staining dye and other inhibitory chemicals. The spots were then dried to absorb maximum digestion buffer. Dried 2D gel spots were rehydrated in digestion buffer containing trypsin. Proteins were digested in-gel at 37° C. and then extracted from the gel with TFA extraction buffer. Subsequently the peptides were desalted using C-18 Zip-tips (Millipore) and mixed with CHCA matrix (alpha-cyano-4-hydroxycinnamic acid) and spotted into wells of a MALDI plate. Mass spectra of the peptides in each sample were obtained using an Applied Biosystems Proteomics Analyzer. The spectra were compared to the amino acid sequences encoded by putative ORFs from the de novo assembled TG pollen transcripts. […] The amino acid sequences encoded by these ORFs were clustered using a custom script at a sequence similarity threshold of 90% to group together highly similar protein sequences. These sequences are encoded by different transcripts from the current assembly, which could arise from splice variants, allelic variation between cells of TG pollen, and from gene families with multiple members. Amino acid sequences that form one cluster are assigned one putative protein ID (Table 1).

[1] = tested on: PBMCs from TG allergic donors; test: IFNg ELISPOT of TG extract-expanded PBMCs from TG allergic donors (single peptides); format: cell-based, human; conditions: for Total response IFNg Events: number of positive response events
[2] = tested on: PBMCs from TG allergic donors; test: as above; format: cell-based, human; conditions: T cell recognition in TG allergic patients; for Total response IFNg Events: number of positive events
human IgG = test: 2D gel immunoblot of TG extract with serum pool from 8 TG-allergic donors, IgG reactivity; format: binding; conditions: for Antibody reactivity IgE/IgG: IgG: reactivity of the parent antigen (TG protein) from which the peptide is predicted, G+/G−; for Antibody reactvity IgE/IgG: IgG: G+ = IgG reactive, G− = not
Experimental: as §1, §2

[3] = tested on: PBMCs from TG allergic donors; test: IL-5 ELISPOT of TG extract-expanded PBMCs from TG allergic donors (peptide pools, single peptides, TG extract); format: cell-based, human
Experimental: Each donor was recruited following Institutional Review Board approval (Federal Wide Assurance number 00000032) and informed consent and assigned a study identification number. Donors were tested for allergen reactivity by skin prick tests to extracts from 32 common allergens. TG allergic donors were identified as having a skin reaction with a wheal of 5 mm in diameter to TG and a clinical history consistent with seasonal grass pollen allergy. Donors that had received specific immunotherapy were excluded. Non-allergic donors were identified as having negative skin prick tests to all allergens and no clinical history of allergy.
PBMCs were isolated by density gradient centrifugation from one unit of blood (˜450 ml) and cryo-preserved as described previously (12). For in vitro expansions, PBMCs were thawed and cultured in RPMI 1640 (Ω Scientific, Tarzana, Calif.) supplemented with 5% human AB serum (Cellgro, Herndon, Va.) at a density of 2×10^6 cells/ml in 24-well plates (BD Biosciences, San Jose, Calif.) and stimulated with TG pollen extract ([…]) (Greer, Lenoir, N.C.). Cells were kept at 37° C., 5% CO2 and additional IL-2 and IL-7 (10 U/ml, eBioscience, San Diego, Calif.) was added every 3 d after initial antigenic stimulation. On day 14, cells were harvested and screened for reactivity against TG-specific peptide pools (16-25 peptides/pool, averaging 20 peptides/pool). On day 17, peptides from positive pools were tested individually to identify the reactive epitopes.
The production of IL-5 from cultured PBMCs in response to antigen stimulation was measured by ELISPOT as described previously (12). Briefly, 1×10^5 cells/well were incubated with peptide, peptide pool or TG extract (10 μg/ml, 5 μg/ml and 50 μg/ml, respectively). After 24 h, cells were removed and plates were incubated with 2 μg/ml biotinylated anti-human IL-5 Ab (Mabtech) at 37° C. After 2 h, plates were washed and avidin-peroxidase-complex was added (Vector Laboratories, Burlingame, Calif.) for 1 h at RT. Peroxidase-conjugated spots were developed with 3-amino-9-ethylcarvazole solution (Sigma-Aldrich, St. Louis, Mo.). Criteria for peptide pool positivity were 100 SFCs/106 PBMCs, p 0.05, and a stimulation index (SI) 2. Criteria for individual peptides were the same except a minimum of 20 SFCs was counted as positive.

[4] = tested on: PBMCs from TG allergic donors; test: IFNg ELISPOT of TG extract-expanded PBMCs from TG allergic donors (single peptides); format: cell-based, human; conditions: for Total response IFNg Events: number of positive response events in TG allergic patients; for Total response IFNg SFC: TG allergic patients
[5] = tested on: PBMCs from TG allergic donors; test: IFNg ELISPOT of TG extract-expanded PBMCs (single peptides); format: cell-based, human; conditions: for Total response IFNg SFC: 15-mer peptide; for Total response IFNg Events: number of positive response events to the 15-mer peptide
[6] = E+ / E− part of the cell, reactivity of the parent antigen
[7] = IgE reactivity of the parent TG antigen
[8] = G+ / G− part of the cell, reactivity of the parent antigen
[9] = IgG reactivity of the parent TG antigen
[10] = IL-5, number of positive response events
[11] = T cell recognition in TG allergic patients, number of positive events
[12] = T cell recognition in TG allergic patients
[13] = number of positive response events in TG allergic patients
[14] = reactivity of the parent antigen
[15] = number of positive response events to the 15-mer peptide

Row | Substance | Antibody reactvity IgE/IgG (IgE part) (human IgE; [6]) | Antibody reactvity IgE/IgG (IgE part) (human IgE; [7]) | Total response IFNg Events [1] | Total response IFNg SFC [1] | Total response IFNg Events [2] | Antibody reactvity IgE/IgG (IgG part) (human IgG; [8]) | Antibody reactvity IgE/IgG (IgG part) (human IgG; [9]) | Total response IL-5 Events [3, 10] | Total response IL-5 Events [3, 11] | Total response IFNg Events [4] | Antibody reactivity IgE/IgG: IgE (human IgE) | Antibody reactivity IgE/IgG: IgG (human IgG) | Total response IL-5 Events [3, 13] | Total response IFNg SFC [4] | also measured
1 | 83 (TIVASGIENMKIFTR; Phleum pratense) [Peptide 83] | E+ | E+ | 1 | 293 SFC | 1 | G+ | G+ | 0 | 0 |  |  |  |  |  | Total response IFNg SFC [2]: 293 SFC
2 | 141 (LLGYLLWVVAIRRPR; Phleum pratense) [Peptide 141] | E+ | E+ | 0 |  | 0 | G+ | G+ | 1 | 1 |  |  |  |  |  | Total response IL-5 SFC ([3]; IL-5, total SFC): 110 SFC; Total response IL-5 SFC [3, 12]: 110 SFC
3 | 350 (LKDGSTYSFRFSFIV; Phleum pratense) [Peptide 350] | E+ | E+ | 0 |  | 0 | G+ | G+ | 1 | 1 |  |  |  |  |  | Total response IL-5 SFC ([3]; IL-5, total SFC): 20 SFC; Total response IL-5 SFC [3, 12]: 20 SFC
4 | 411 (SSTRGWCSRRRAGRG; Phleum pratense) [Peptide 411] | E− |  | 0 |  |  | G+ |  | 0 |  | 0 | E− | G+ | 0 |  | 
5 | 455 (KRPPRCCQDLVVLPL; Phleum pratense) [Peptide 455] |  |  |  |  |  |  |  |  |  | 0 | E− | G+ | 0 |  | 
6 | 527 (TVSDEYLAAVAKARR; Phleum pratense) [Peptide 527] | E+ | E+ | 1 | 73 SFC | 1 | G+ | G+ | 0 | 0 |  |  |  |  |  | Total response IFNg SFC [2]: 73 SFC
7 | 4269 (GVIAGLNVLRIINEP; Phleum pratense) [Peptide 4269] | E− |  | 1 | 33 SFC |  | G+ |  | 0 |  | 1 | E− | G+ | 0 | 33 SFC | 
8 | 5621 (KIASFLDPDGWKVVL; Phleum pratense) [Peptide 5621] |  |  |  |  |  |  |  |  |  | 1 | E− | G− | 0 | 343 SFC | Antibody reactvity IgE/IgG: IgE (human IgE; [14]): E−; Total response IFNg SFC [5]: 343 SFC; Total response IFNg Events [5]: 1; Antibody reactvity IgE/IgG: IgG (human IgG; [14]): G−; Total response IL-5 Events [3, 15]: 0
9 | 6119 (KVSKVLNTYIFLLYL; Phleum pratense) [Peptide 6119] |  |  |  |  |  |  |  |  |  | 0 | E− | G− | 1 |  | Antibody reactvity IgE/IgG: IgE (human IgE; [14]): E−; Total response IFNg Events [5]: 0; Antibody reactvity IgE/IgG: IgG (human IgG; [14]): G−; Total response IL-5 SFC ([3]; 15-mer peptide): 27 SFC; Total response IL-5 SFC ([3]; TG allergic patients): 27 SFC; Total response IL-5 Events [3, 15]: 1
10 | 48269 (YAVGQKIKAYLEAES; Phleum pratense) [Peptide 48269] | E− |  | 1 | 297 SFC |  | G+ |  | 0 |  | 1 | E− | G+ | 0 | 297 SFC | 
11 | 64111 (KNPLKFDNTYFTELL; Phleum pratense) [Peptide 64111] |  |  |  |  |  |  |  |  |  | 1 | E− | G− | 1 | 47 SFC | Antibody reactvity IgE/IgG: IgE (human IgE; [14]): E−; Total response IFNg SFC [5]: 47 SFC; Total response IFNg Events [5]: 1; Antibody reactvity IgE/IgG: IgG (human IgG; [14]): G−; Total response IL-5 SFC ([3]; 15-mer peptide): 100 SFC; Total response IL-5 SFC ([3]; TG allergic patients): 100 SFC; Total response IL-5 Events [3, 15]: 1
